For orientation: inhibition means the change of the read-out against control, counted positive when it falls. For orientation: EC50 means the concentration that produces a half-maximal response. Read a high EC50 as weaker potency.

In assay [1] the target is T1, Peroxisome proliferator-activated receptor gamma (Homo sapiens) (UniProt P37231).
T1 sequence (whole entry): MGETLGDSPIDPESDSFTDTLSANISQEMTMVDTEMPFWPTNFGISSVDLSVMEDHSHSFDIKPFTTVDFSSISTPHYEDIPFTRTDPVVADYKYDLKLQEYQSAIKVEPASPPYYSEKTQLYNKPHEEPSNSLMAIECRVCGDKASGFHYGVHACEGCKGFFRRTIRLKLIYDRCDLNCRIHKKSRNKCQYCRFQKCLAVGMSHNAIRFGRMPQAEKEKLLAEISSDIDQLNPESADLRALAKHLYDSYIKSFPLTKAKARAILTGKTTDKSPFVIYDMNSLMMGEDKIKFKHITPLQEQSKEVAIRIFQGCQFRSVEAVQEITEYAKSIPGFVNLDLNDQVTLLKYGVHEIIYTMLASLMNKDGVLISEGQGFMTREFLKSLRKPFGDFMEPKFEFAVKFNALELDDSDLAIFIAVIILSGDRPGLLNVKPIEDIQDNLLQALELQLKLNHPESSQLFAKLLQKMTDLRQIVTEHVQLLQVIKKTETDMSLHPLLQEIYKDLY
Nature of the assay: Inhibition of PPRAgamma in HEK293 cells assessed as […] in FABP4 mRNA expression at 100 nM relative to control. It is filed as cell-based.

A short description of assay [2]: Induction of ANGPTL4 mRNA expression in human HT1197 cells.

For `N#Cc1ccc(Cl)c(-c2cc(=O)c3c(F)cc(F)cc3[nH]2)c1`, the inhibition in assay [1] is 95%.
The compound `N#Cc1cc(-c2cc(=O)c3c(F)cc(F)cc3[nH]2)c(Cl)cn1` yielded an EC50 in assay [2] of 0.14 nM.

These data come from ChEMBL document CHEMBL6134908, “Inverse Agonists of Peroxisome Proliferator-Activated Receptor Gamma: Advances and Prospects in Cancer Treatment” (J Med Chem, 2025).
